In US20050038072A1, “Nitrogeneous cyclic ketone derivative, process for producing the same, and use” (Takeda Chemical Industries, Ltd., priority 2001, published 2005):
Where a name gives a salt, the structure may show the parent alone.

Tests used:
substance P receptor = molecular target: T1, substance P receptor (Homo sapiens, UniProt P25103); assay: Radioligand receptor binding inhibiting activity (binding inhibitory activity using receptor from human lymphoblast cell (IM-9)); conditions: radioligand [125I]-labeled substance P (125I-BHSP), 25° C., 30 minutes
T1 construct: endogenous in cells; host or cells: IM-9 human lymphoblast cells (membrane preparation)
T1 sequence (P25103 whole entry): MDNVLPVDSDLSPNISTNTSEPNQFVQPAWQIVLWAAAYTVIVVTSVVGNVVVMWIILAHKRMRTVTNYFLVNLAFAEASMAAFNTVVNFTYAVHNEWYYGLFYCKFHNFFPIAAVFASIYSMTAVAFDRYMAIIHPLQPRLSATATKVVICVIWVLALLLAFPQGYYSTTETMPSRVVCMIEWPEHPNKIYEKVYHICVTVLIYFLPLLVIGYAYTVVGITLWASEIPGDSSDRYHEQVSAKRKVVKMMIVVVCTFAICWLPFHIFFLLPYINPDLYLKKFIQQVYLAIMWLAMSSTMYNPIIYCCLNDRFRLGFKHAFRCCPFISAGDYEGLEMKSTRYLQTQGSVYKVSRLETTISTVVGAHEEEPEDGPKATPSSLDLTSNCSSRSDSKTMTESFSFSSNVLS
Protocol: Radioligand receptor binding inhibiting activity (binding inhibitory activity using receptor from human lymphoblast cell (IM-9))
A modified method by M. A. Cascieri et al (Molecular Pharmacology, Vol. 42, p. 458 (1992)) was employed. The receptor was prepared from a human lymphoblast cell (IM-9). After inoculation of IM-9 cells (2×10^5 cells/ml), the cells were cultured for 3 days (1L), and then the culture was centrifuged at 500×G for 5 minutes to obtain a cell pellet. The resultant pellet was washed once with a phosphate buffer (FLOW LABORATORIES, CAT. No. 28-103-05), fractured in 30 ml of a 50 mM Tris-HCl buffer (pH 7.4) containing 120 mM sodium chloride, 5 mM potassium chloride, 2 μg/ml chymostatin, 40 μg/ml bacitracin, 5 μg/ml phosphoramidone, 0.5 mM phenylmethylsulfonyl fluoride and 1 mM ethylenediamine tetraacetic acid using a polytron homogenizer (Kinematika, Germany), and centrifuged at 40,000×G for 20 minutes. The separated material was washed twice with 30 ml of the buffer solution described above and stored frozen as a receptor standard preparation (−80° C.)
This preparation was suspended in a reaction buffer [50 mM Tris-HCl buffer (pH 7.4), 0.02% bovine serum albumin, 1 mM phenylmethylsulfonyl fluoride, 2 μg/ml of chymostatin, 40 μg/ml bacitracin, 3 mM manganese chloride] at a protein concentration of 0.5 mg/ml and a 100 μl portion was used for the reaction. The sample, 125I-BHSP (0.46 KBq) was also added and the mixture was reacted in a 0.2 ml reaction buffer at 25° C. for 30 minutes. A non-specific binding level was measured by adding substance P at 2×10^−6 M.
After the reaction, a Cell Harvester [290PHD manufactured by Cambridge Technology, Inc, USA] was used to conduct a rapid filtration over a glass filter [GF/B manufactured by Whatman, USA] whereby terminating the reaction, followed by washing three times with 250 μl of a 50 mM Tris-HCl buffer solution (pH 7.4) containing 0.02% bovine serum albumin. Then, the radioactivity remaining on the filter was counted with a gamma counter. The filter was used after immersing in a 0.1% polyethylene imine over a whole day and night followed by drying in air.
The radioligand means [^125I]-labeled substance P.

SMILES	melting point	IC50 (substance P receptor)
O=C1CNCCC1C1c2ccccc2CCc2ccccc21 (centres unmarked) (as salt: hydrochloride) [Example 198, 4-(10,11-Dihydro-5H-dibenzo[a,d][7]annulen-5-yl)-3-piperidinone]	196 to 198 °C (dec.)	
CCOc1ccccc1CN1CCC(=O)C(C(c2ccc(F)cc2)c2ccc(F)cc2)C1 (centres unmarked) [Example 98, 3-[Bis(4-fluorophenyl)methyl]-1-(2-ethoxybenzyl)-4-piperidinone]		0.85 nM
O=C1CCN(Cc2ccccc2)CC1C(c1ccc(Cl)cc1)c1ccccc1Cl (centres unmarked) (as salt: hydrochloride) [Example 158, 1-Benzyl-3-[(2-chlorophenyl)(4-chlorophenyl)methyl]-4-piperidinone]	190 to 191 °C	
O=C1CN(Cc2ccccc2)CCC1C(c1ccc(F)cc1)c1ccc(F)cc1 (centres unmarked) (as salt: hydrochloride) [Example 195, 1-Benzyl-4-[bis(4-fluorophenyl)methyl]-3-piperidinone]	177.5 to 179 °C	
CCOc1cccc(OC)c1CN1CCC(=O)C(C(c2ccccc2)c2ccccc2)C1 (centres unmarked) [Example 170, 3-Benzhydryl-1-(2-ethoxy-6-methoxybenzyl)-4-piperidinone]	137 to 138 °C	
O=C1CCNCC1C(c1ccccc1)c1ccccc1F (centres unmarked) (as salt: hydrochloride)	204 to 205 °C	
COc1ccc2ccccc2c1CN1CCC(=O)C(C(c2ccc(F)cc2)c2ccc(F)cc2)C1 (centres unmarked) [Example 148, 3-[Bis(4-fluorophenyl)methyl]-1-[(2-methoxy-1-naphthyl)methyl]-4-piperidinone]	125 to 126 °C	
O=C1CCN(Cc2ccccc2)CC1C(c1ccccc1)c1ccccc1F (centres unmarked) (as salt: hydrochloride) [Example 157, 1-Benzyl-3-[(2-fluorophenyl)(phenyl)methyl]-4-piperidinone]	214 to 215 °C	
COc1ccc(N(S(C)(=O)=O)S(C)(=O)=O)cc1CN1CCC(=O)C(C(c2ccccc2)c2ccccc2)C1 (centres unmarked) [Example 178, N-[3-[(3-Benzhydryl-4-oxo-1-piperidinyl)methyl]-4-methoxyphenyl]-N-(methylsulfonyl)methanesulfonamide]	132 to 135 °C	
COc1ccc(Br)cc1CN1CCC(=O)C(C(c2ccc(F)cc2)c2ccc(F)cc2)C1 (single isomer, unassigned; (-)) [Example 163, (−)-3-[Bis(4-fluorophenyl)methyl]-1-(5-bromo-2-methoxybenzyl)-4-piperidinone]		0.62 nM
COc1c(CN2CCC(=O)C(C(c3ccccc3)c3ccccc3)C2)cc(C(C)(C)C)cc1C(C)(C)C (centres unmarked) [Example 161, 3-Benzhydryl-1-(3,5-di-tert-butyl-2-methoxybenzyl)-4-piperidinone]	136 to 138 °C	

Second part, the compound after the results:

melting point	IC50 (substance P receptor)	SMILES
	0.44 nM	CCOc1ccccc1CN1CCC(=O)C(C(c2ccccc2)c2ccccc2)C1 (centres unmarked) [Example 99, 3-Benzhydryl-1-(2-ethoxybenzyl)-4-piperidinone]
177 to 178 °C		O=C1CCN(Cc2cc([N+](=O)[O-])ccc2O)CC1C(c1ccccc1)c1ccccc1 (centres unmarked) [Example 184, 3-Benzhydryl-1-(2-hydroxy-5-nitrobenzyl)-4-piperidinone]
174 to 175 °C		COc1ccc(OC(F)(F)F)cc1CN1CCC(=O)C(C(c2ccccc2)c2ccccc2)C1 (centres unmarked) (as salt: hydrochloride) [Example 168, 3-Benzhydryl-1-[2-methoxy-5-(trifluoromethoxy)benzyl]-4-piperidinone]
132 to 135 °C	0.26 nM	COc1ccc(NS(C)(=O)=O)cc1CN1CCC(=O)C(C(c2ccccc2)c2ccccc2)C1 (centres unmarked) [Example 183, N-[3-[(3-Benzhydryl-4-oxo-1-piperidinyl)methyl]-4-methoxyphenyl]methanesulfonamide]
	0.42 nM	COc1ccc(C(C)C)cc1CN1CCC(=O)C(C(c2ccccc2)c2ccccc2)C1 (centres unmarked) [Example 175, 3-Benzhydryl-1-(5-isopropyl-2-methoxybenzyl)-4-piperidinone]
	0.29 nM	CCOc1ccc([N+](=O)[O-])cc1CN1CCC(=O)C(C(c2ccccc2)c2ccccc2)C1 (centres unmarked) [Example 185, 3-Benzhydryl-1-(2-ethoxy-5-nitrobenzyl)-4-piperidinone]
119 to 120 °C		COc1ccc([N+](=O)[O-])cc1CN1CCC(=O)C(C(c2ccccc2)c2ccccc2)C1 (centres unmarked) [Example 176, 3-Benzhydryl-1-(2-methoxy-5-nitrobenzyl)-4-piperidinone]
	0.34 nM	COc1ccc(OC(F)(F)F)cc1CN1CCC(=O)C(C(c2ccccc2)c2ccccc2)C1 (centres unmarked) [Example 168, 3-Benzhydryl-1-[2-methoxy-5-(trifluoromethoxy)benzyl]-4-piperidinone]
